Assay: Hygroscopicity of the amorphous form
Type: physicochemical
Settings: solid amorphous form; normally amorphous Forms are hygroscopic

hygroscopicity: non-hygroscopic
SMILES: CS(=O)(=O)O.O=C(NC1CCN(CCCCC2(C(=O)NCC(F)(F)F)c3ccccc3-c3ccccc32)CC1)c1ccccc1-c1ccc(C(F)(F)F)cc1 [Amorphous Lomitapide mesylate]

From patent US20170057917A1, “Polymorphs of Lomitapide and its Salts” (Hetero Research Foundation, priority 2014, published 2017)
